One test concerns EAE mouse model. The test is described as follows: experimental autoimmune encephalomyelitis (EAE) mouse model. In kind it is in vivo, female C57BL/6 mice. The text has this:
Multiple sclerosis (MS) is a neurological autoimmune disease in which the body's immune system attacks the cells of myelin, the protective sheath surrounding the […] of the brain and spinal cord. Until now, EAE has been well known as a preclinical model associated with multiple sclerosis. Therefore, an EAE mouse model was used to confirm the effects of compound 2 on autoimmune diseases.
The EAE mouse model was induced in 6-week-old female C57BL/6 mice. Mice were divided into three groups: 6 mice were placed in the normal group, and 8 mice were placed in the control EAE group (vehicle group) and the EAE + Compound 2 group (Compound 2 treatment group), respectively. In the mice, 200 µg of oligodendrocyte glycoprotein peptide myelin oligodendrocyte glycoprotein 35-55 (MOG35-55, Prospecbio , Israel) emulsified in 400 µg of complete Freund's adjuvant (CFA, Sigma, USA) was inoculated. The emulsion was injected into both sides of each mouse. Subsequently, 200 ng of pertussis toxin (Sigma, USA) was injected intraperitoneally on days 0 and 2. Compound 2 was injected intraperitoneally at a dose of 3.3 mg/kg every 24 hours for 7 days starting on day 9. In the control EAE group, PBS was injected intraperitoneally. Clinical signs associated with EAE were monitored daily and rated on a scale of 0 to 5: Grade 0, no apparent clinical symptoms; Grade 0.5, partial tail paralysis; Grade 1, tail paralysis or waddling gait; Grade 1.5, partial tail paralysis and waddling gait; Grade 2, tail paralysis and waddling gait; Grade 2.5, partial quadriplegia; Grade 3, unilateral limb paralysis; Grade 3.5, unilateral paralysis and partial paralysis of the other limb; Grade 4, bilateral paralysis; Grade 4.5, coma; Grade 5, death.
On day 25 after EAE induction, mice were euthanized by exposure to CO2, and spleens were extracted. RNA expression in the spleen was analyzed using Applied Biosystems™QuantStudio 5 qPCR system (Thermofisher, USA) with AMPIGENE qPCR Green Mix Hyrox (Thermofisher, USA), including […] forward and reverse primers (Bionics Korea) and SYBR green dye (Enzo Life Sciences, Farmingdale , NY, USA). The expression levels of each gene were standardized to glyceraldehyde 3-phosphate dehydrogenase (GAPDH) and compared to the expression levels of the normal or control EAE groups. To evaluate the effect of compound 2 on Treg, mouse splenocyte preparations were stained with the Treg detection kit (CD4/CD25/FoxP3) (Miltenyi Biotech, Germany) according to the manufacturer's instructions, and the Treg population was evaluated using flow cytometry. The data was analyzed using FlowJo™ 10.8.1 software.

For test [1], the system named is mouse model of amyotrophic lateral sclerosis. To be noted: previous studies, ALS mouse model; cited from earlier work.
Test [2] concerns imiquimod (IMQ)-induced psoriasis model. The test can be described thus: imiquimod (IMQ)-induced psoriasis mouse model. Format: in vivo, Male BALB/C mice. The source says:
The goal of this Example was to investigate the effect of compound 2 in the imiquimod (IMQ)-induced psoriasis model, which is widely used as one of the induced psoriasis models.
For the experiment, psoriasis was induced using imiquimod (IMQ). The IMQ-induced psoriasis mouse model is one of the most widely used models for studying psoriasis. IMQ is a Toll-like receptor-7/8 (TLR-7/8) agonist used to treat actinic keratosis and basal cell carcinoma. It is known that topical application of IMQ cream to the skin of mice recruits immune cells and activates macrophages, monocytes, and dendritic cells to secrete inflammatory cytokines. The IMQ-induced psoriasis mouse model is known to be very similar to human psoriasis in terms of skin erythema, keratinization, epidermal changes (acanthosis), and inflammatory infiltration consisting of T cells, neutrophils, and dendritic cells.
Male BALB/C mice weighing 20-22 g were supplied by Saeron Bio Co., Ltd. (Korea) and acclimatized for 7 days. The animals were housed in separate cages with free access to laboratory feed and water. During the experiment, the animals were maintained at 23±3°C and 50±10% relative humidity with a 12-hour light-dark cycle. The animals were treated according to a protocol approved by the Animal Ethics Committee of GNT Pharmaceuticals. The mice were randomly divided into three groups: a normal group (n=5), a control psoriasis group (Vehicle group, n=8), and an IMQ+Compound 2 group (compound 2 treatment group, n=9). All IMQ treatment groups were administered 5% imiquimod cream (Aldara Cream, Dong-A Pharmaceutical Co., Ltd.) topically to shaved backs at a dose of 62.5 mg per day for 6 days. Compound 2 (5 mg/kg, twice daily) was orally administered to the IMQ+Compound 2 group for 6 days, followed by IMQ treatment.
To evaluate the anti-psoriatic effects of compound 2, the severity of psoriasis was monitored using an IMQ-induced psoriasis mouse model. The Psoriasis Skin PASI score is used to assess the severity of skin lesions in mice.
After confirming the therapeutic effect of compound 2 on psoriasis-like symptoms in mice, histological analysis was performed to identify histological changes occurring in psoriatic skin and methods of improvement.
Mice were anesthetized with pentobarbital at the end of the experiment. Blood was collected by cardiac blood sampling. Within 30 minutes of collection, serum was separated from whole blood using EDTA by centrifugation at 12,000 g for 10 minutes. The weight of the extracted spleen was measured.

Test [3] relates to imiquimod (IMQ)-induced lupus model. The test is described as follows: imiquimod (IMQ)-induced lupus (SLE) mouse model. To be noted: for spleen index (organ weight/body weight x 100%): Fig. 1b; for follicle diameter / number of splenic follicles: H&E stained spleen sections, Fig. 2b-2c; for anti-dsDNA titers: SLE mouse serum, ELISA (IgG specific), Fig. 3. Format: in vivo, Female BALB/C mice. The method, then:
The goal of this Example was to investigate the effects of compound 2 in the imiquimod (IMQ)-induced lupus model, which is widely used as one of the induced SLE models.
Female BALB/C mice weighing 18-20 g were supplied by Saeron Bio Co., Ltd. (Korea) and acclimatized for 7 days. The animals were housed in separate cages with free access to laboratory feed and water. During the experiment, the animals were maintained at 23±3°C and 50±10% relative humidity with a 12-hour light-dark cycle. The animals were treated according to a protocol approved by the Animal Ethics Committee of GNT Pharmaceuticals. The mice were randomly divided into four groups: a normal group (n=6), a control SLE group (vehicle group, n=8), an IMQ+Compound 2 group (Compound 2 treatment group, n=4), and an IMQ+N-acetylcysteine group (NAC treatment group, n=8). All IMQ treatment groups were administered 5% imiquimod cream (Aldara Cream, Dong-A Pharmaceutical Co., Ltd.) topically to the right ear at a dose of 1.25 mg daily every other day for 4 weeks. Compound 2 (5 mg/kg, twice daily) was orally administered to the IMQ+Compound 2 group for 4 weeks, followed by concurrent IMQ treatment. N-acetyl Cysteine (150 mg/kg, once daily, adjusted to pH 7.5-8.0) was administered intraperitoneally to the IMQ+NAC group for 4 weeks along with IMQ treatment.
Mice were anesthetized with pentobarbital at the end of the experiment. Blood was collected through cardiac blood sampling. Within 30 minutes of collection, serum was separated from whole blood using EDTA by centrifugation at 12,000 g for 10 minutes. The extracted spleen was weighed, then the tissue was heated to 60°C, washed with xylene, and immersed in ethanol at gradient concentrations. The sections were H&E stained (BBC Biochemical, Washington State Mount Vernon) and then imaging was performed under a microscope. Observation was conducted through five fields of view at 10x magnification, and the number of spleen alba pulps (follicles) was counted. In addition, the diameter of the spleen alba pulp was observed using a micrometer. The diameter of the alba pulp was measured vertically and horizontally, and the average was calculated. Using a commercially available enzyme-linked immunosorbent assay (ELISA) kit (LBIS Mouse anti-dsDNA ELISA, Fujifilm Wako Shibayagi Co., Ltd., Richmond, Virginia, USA) serum anti-dsDNA (IgG specific) concentration was analyzed.
In general terms: An ELISA detects its analyte on a solid surface through an enzyme-linked reagent.

The target in test [4] is T1, microsomal prostaglandin E synthase-1 (mPGES-1) (Homo sapiens, UniProt O14684).
T1 sequence (O14684 1-152): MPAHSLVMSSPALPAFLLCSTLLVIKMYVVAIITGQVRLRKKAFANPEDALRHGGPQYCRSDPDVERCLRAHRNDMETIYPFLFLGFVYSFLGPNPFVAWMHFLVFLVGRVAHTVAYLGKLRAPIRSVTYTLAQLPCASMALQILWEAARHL
The note with it: previous studies; cited from earlier work.

Where [5] appears, read: spleen RNA, qPCR, versus control EAE group, Fig. 6.
Setting [6] is: Masson's trichrome staining, Fig. 10.
Setting [7] is: SLE mice, 4 weeks, compound 2 5 mg/kg twice daily oral, NAC 150 mg/kg once daily i.p., versus control SLE group.

As to `O=C(O)c1cc(NCCc2ccc(C(F)(F)F)cc2)ccc1O` [compound 2, 2-hydroxy-5-[2-(4-trifluoromethyl-phenyl)-ethylamino]-benzoic acid], the onset date entry in the test with EAE mouse model (EAE mice, compared with control EAE group) is reported as “similar”. Besides, in the test with EAE mouse model (EAE mice, compound 2 3.3 mg/kg i.p. every 24 hours for 7 days from day 9, scale 0 to 5, Fig. 4), the Clinical signs entry is recorded as “effectively alleviated”. For the same compound, in the test on EAE mouse model (setting [5]), the CD206 expression entry is reported as “significantly increased”, the “expression of IFN-γ” value is recorded as “lower”, the “expression of TNF-α” value is “lower” and the iNOS expression result was “significantly lower”. Further, in the test with EAE mouse model (splenocytes, flow cytometry, versus control EAE group, Fig. 7), the “number of Treg cells (CD4+CD25+Foxp3+)” value is on record as “significantly higher”. Further, the “neuronal death, motor function and lifespan” value in test [1] is “block neuronal death, lateral sclerosis, and autophagocytosis formation, as well as activate motor function and increase lifespan”. For the same compound, the “epidermal thickening (acanthosis) and elongation of the rate ridges” value in test [2] (H&E histopathology of skin lesions, versus IMQ alone, Fig. 9a) is recorded as “significant inhibition”. For the same compound, the epidermal thickness result in test [2] (H&E-stained dorsal skin, Fig. 9b) was “significantly reduced”. Further, the spleen index entry in test [2] (IMQ-induced psoriasis mice, versus control psoriasis group, Fig. 11b) is on record as “decreased”. For the same compound, in test [2] (IMQ-induced psoriasis mice, Fig. 11a), the “spleen size and weight” value is “decreased”. Further, in test [2] (setting [6]), the “collagen pattern in the dermis” value is given as “much more compressed collagen pattern” and the psoriasis-like inflammation result is recorded as “potently inhibited”. Further, the PASI scores entry in test [2] (psoriasis mice, compound 2 5 mg/kg twice daily oral for 6 days, versus control psoriasis group, Figs. 8b-8e) is “significantly lower score than the control psoriasis group”. Further, in test [3] (SLE mice, 4 weeks, compound 2 5 mg/kg twice daily oral, NAC 150 mg/kg once daily i.p., versus control SLE group, Fig. 1a), the spleen size result is reported as “smaller than that of the control SLE group”. In test [3] (setting [7]), the “spleen index (organ weight/body weight x 100%)” value is given as “significantly lower than that of the control SLE group”. Further, in test [3] (SLE mice), the follicle diameter entry is “significantly decreased” and the “number of splenic follicles” value is “significantly increased”. For the same compound, the anti-dsDNA titers result in test [3] is recorded as “significantly reduced”. Moreover, the mPGES-1 inhibition entry in test [4] was “inhibitor at nanomolar concentrations”.

For `CC(=O)N[C@@H](CS)C(=O)O` [NAC, N-acetylcysteine, reference compound], the “spleen index (organ weight/body weight x 100%)” value in test [3] (setting [7]) is reported as “no significant difference”. Besides, in test [3] (SLE mice), the follicle diameter entry is “did not show a beneficial effect” and the “number of splenic follicles” value was “did not show a beneficial effect”. In addition, the anti-dsDNA titers result in test [3] is given as “no effect”.

Source of the values: patent EP4817614A1, “COMPOSITION AND METHOD FOR TREATING AUTOIMMUNE DISEASES” (GNT Pharma Co., Ltd., priority 2023, dated 2025).
